Test results: ChEMBL document CHEMBL1201862, “PubChem BioAssay data set” (2004)
Calls of active or inactive are those of the source.

Legend:
Cytochrome P450 2C9 = Cytochrome P450 2C9 (Homo sapiens, UniProt P11712); conditions: Potency
Cytochrome P450 2D6 = Cytochrome P450 2D6 (Homo sapiens, UniProt P10635); test: qHTS Assay for Inhibitors and Substrates of Cytochrome P450 2D6. [Related pubchem assays: 410 ]; assay type: ADME; conditions: read-out: Potency
[1] = biological target: T1, Neuropeptide Y receptor type 1 (Homo sapiens, UniProt P25929); test: Fluorescence-based dose response cell-based high-throughput screening assay for agonists of NPY-Y1. [Related pubchem assays: 1697 (Screening assay (NPY-Y1 agonists).), 1359 (Screening assay (NPY-Y2 potentiators or agonists).), 1304 (Screening assay (NPY-Y1 potentiators or agonists).), 1704 (Screening assay (CNGC inhibitors).), 1791 (Summary AID.)]; assay type: functional
T1 sequence (P25929 whole entry): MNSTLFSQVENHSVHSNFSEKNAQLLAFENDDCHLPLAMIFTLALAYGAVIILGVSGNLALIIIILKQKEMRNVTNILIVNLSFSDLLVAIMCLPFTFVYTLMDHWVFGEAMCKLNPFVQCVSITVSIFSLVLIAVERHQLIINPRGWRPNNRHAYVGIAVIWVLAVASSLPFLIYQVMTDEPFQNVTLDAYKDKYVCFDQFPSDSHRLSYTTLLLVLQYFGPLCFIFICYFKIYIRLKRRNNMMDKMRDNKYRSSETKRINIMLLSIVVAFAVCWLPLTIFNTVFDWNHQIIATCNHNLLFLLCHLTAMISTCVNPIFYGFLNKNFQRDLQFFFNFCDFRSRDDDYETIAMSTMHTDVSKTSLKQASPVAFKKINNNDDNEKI

[2] = biological target: T2, Neuropeptide Y receptor type 2 (Homo sapiens, UniProt P49146); test: Fluorescence-based counterscreen for agonists of NPY-Y1: cell-based high-throughput dose response assay for agonists of NPY-Y2.; assay type: functional
T2 sequence (P49146 whole entry): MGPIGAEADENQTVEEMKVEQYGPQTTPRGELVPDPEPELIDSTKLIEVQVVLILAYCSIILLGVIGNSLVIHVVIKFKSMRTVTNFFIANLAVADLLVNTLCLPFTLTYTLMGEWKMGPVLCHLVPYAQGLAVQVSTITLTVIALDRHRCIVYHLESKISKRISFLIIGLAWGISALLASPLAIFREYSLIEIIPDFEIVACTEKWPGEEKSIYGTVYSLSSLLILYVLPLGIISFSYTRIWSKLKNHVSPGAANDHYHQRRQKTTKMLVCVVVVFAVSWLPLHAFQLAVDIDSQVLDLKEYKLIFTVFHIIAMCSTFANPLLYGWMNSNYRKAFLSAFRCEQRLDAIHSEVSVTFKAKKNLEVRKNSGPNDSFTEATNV

HEK293 = test: Fluorescence-based counterscreen for potentiators or agonists of NPY-Y1: cell-based high-throughput dose response assay for inhibitors of cyclic nucleotide gated ion channel (CNGC) activity. In this assay, the parental HEK293 cell line transfected with a cyclic-nucleotide gated ion channel (CNGC)-based cAMP sensor is used to measure inhibition of isoproterenol-induced CNGC …; assay type: functional; conditions: Homo sapiens
[3] = biological target: Intestinal-type alkaline phosphatase (Homo sapiens, UniProt P09923); test: inhibition of human intestinal alkaline phosphatase – biochemical, dose response (AID 488876); assay type: functional
[4] = biological target: Intestinal-type alkaline phosphatase (Mus musculus, UniProt P24822); test: PubChem AID 488785; assay type: functional
[5] = biological target: T3, Alkaline phosphatase, tissue-nonspecific isozyme (Homo sapiens, UniProt P05186); test: TNAP enzyme inhibition by screening hits, dose response, selectivity assay for mouse IAP inhibitor project, biochemical, human TNAP, uHTS hits (AID 488906); assay type: functional
T3 sequence (P05186 whole entry): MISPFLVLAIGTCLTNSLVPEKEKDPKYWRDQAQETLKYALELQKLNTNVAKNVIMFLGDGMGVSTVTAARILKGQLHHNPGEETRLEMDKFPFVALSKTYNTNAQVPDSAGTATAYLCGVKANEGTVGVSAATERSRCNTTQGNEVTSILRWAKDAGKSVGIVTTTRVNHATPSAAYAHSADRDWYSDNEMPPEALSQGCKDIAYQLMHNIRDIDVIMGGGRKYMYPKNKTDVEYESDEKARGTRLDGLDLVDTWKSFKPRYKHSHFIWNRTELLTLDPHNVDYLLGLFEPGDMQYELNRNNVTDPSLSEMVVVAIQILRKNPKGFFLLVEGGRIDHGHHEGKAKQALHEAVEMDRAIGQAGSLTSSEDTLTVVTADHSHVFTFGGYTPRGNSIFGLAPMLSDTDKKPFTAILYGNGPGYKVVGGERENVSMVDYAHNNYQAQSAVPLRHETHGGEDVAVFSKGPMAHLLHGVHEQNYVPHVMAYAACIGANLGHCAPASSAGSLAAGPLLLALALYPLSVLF

[6] = biological target: T3, Alkaline phosphatase, tissue-nonspecific isozyme
[7] = biological target: T4, Short transient receptor potential channel 4 (Mus musculus, UniProt Q9QUQ5); test: block of DAMGO-driven TRPC4 calcium entry – cell-based, HEK293 TRPC4/mu-opioid, Fluo-4 calcium, dose response (AID 434942); assay type: functional;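 further: potency of inhibitors blocking the TRPC4 calcium response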
T4 sequence (Q9QUQ5 whole entry): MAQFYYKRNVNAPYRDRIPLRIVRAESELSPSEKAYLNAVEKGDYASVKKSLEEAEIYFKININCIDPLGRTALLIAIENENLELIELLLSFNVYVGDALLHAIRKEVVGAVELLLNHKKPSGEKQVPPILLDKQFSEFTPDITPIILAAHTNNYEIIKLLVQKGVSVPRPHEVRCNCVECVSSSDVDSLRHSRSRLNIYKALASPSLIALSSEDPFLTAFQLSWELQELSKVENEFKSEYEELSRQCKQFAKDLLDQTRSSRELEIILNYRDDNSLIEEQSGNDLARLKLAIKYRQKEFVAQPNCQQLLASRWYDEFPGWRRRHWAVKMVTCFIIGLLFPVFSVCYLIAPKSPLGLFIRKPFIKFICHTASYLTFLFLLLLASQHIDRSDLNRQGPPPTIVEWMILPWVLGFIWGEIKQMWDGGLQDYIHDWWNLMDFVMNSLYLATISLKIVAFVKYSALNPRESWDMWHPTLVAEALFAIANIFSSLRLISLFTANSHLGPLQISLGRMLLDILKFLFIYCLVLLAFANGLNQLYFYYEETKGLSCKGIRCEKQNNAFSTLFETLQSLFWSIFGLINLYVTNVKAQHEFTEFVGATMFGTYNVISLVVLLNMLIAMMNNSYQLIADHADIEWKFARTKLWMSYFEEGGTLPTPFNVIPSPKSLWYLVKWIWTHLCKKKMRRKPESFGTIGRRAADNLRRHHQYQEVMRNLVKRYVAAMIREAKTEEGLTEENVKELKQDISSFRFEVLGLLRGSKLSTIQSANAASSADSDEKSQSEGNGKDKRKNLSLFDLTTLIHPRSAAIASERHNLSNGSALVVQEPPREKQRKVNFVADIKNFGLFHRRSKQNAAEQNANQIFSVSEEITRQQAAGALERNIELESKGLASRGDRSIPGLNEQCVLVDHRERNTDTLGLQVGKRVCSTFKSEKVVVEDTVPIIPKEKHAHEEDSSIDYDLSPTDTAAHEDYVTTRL

Cysteine protease ATG4B = Cysteine protease ATG4B (Homo sapiens, UniProt Q9Y4P1); assay type: functional;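 further: Fluorescence-based dose-response confirmation assay measuring inhibition of ATG4B activity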
Phospholipase A2 = Phospholipase A2 (Homo sapiens, UniProt P04054); assay type: functional;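 further: confirmatory dose-response counterscreen on phospholipase A2, testing hits that came from an ultra-high-throughput screen for ATG4B inhibitors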
Streptococcus = test: Luminescence Microorganism-Based Dose Response Follow up to Identify Compounds Cytotoxic to Streptococcus. [Related pubchem assays: 1677 (Project Summary), 1915, 1914, 1902 (Retest at Dose), 1900 (Counter Screen), 1662 (Primary HTS)]; assay type: functional, organism-based
[8] = biological target: T5, Tyrosine-protein phosphatase non-receptor type 7 (Homo sapiens, UniProt P35236); assay type: functional
T5 sequence (P35236 whole entry): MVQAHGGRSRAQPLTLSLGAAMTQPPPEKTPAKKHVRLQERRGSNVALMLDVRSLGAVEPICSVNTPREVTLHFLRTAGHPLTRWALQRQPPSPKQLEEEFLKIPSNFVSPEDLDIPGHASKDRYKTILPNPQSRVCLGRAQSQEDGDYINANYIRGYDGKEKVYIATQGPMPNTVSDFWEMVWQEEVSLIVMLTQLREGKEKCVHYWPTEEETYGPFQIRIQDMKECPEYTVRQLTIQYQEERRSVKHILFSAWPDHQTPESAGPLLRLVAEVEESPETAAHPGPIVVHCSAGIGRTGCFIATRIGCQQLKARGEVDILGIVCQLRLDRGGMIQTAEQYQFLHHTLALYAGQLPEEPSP

[9] = biological target: T6, Dual specificity protein phosphatase 6 (Rattus norvegicus, UniProt Q64346)
T6 sequence (Q64346 whole entry): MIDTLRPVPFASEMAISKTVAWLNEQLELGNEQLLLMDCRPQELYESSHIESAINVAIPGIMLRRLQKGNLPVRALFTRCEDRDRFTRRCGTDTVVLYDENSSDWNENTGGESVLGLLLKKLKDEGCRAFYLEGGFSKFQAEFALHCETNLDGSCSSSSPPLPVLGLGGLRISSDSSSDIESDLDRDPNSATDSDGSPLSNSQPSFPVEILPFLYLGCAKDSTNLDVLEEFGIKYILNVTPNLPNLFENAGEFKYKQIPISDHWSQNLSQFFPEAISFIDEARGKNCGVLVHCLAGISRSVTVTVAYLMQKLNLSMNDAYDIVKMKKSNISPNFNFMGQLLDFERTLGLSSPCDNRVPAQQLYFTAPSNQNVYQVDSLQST

[10] = biological target: Glyceraldehyde-3-phosphate dehydrogenase (Homo sapiens, UniProt P04406)
[11] = biological target: T6, Dual specificity protein phosphatase 6; assay type: functional
[12] = biological target: Melanin-concentrating hormone receptor 1 (Homo sapiens, UniProt Q99705); test: Fluorescence-based counterscreen for antagonists of the G-protein coupled receptor 7 (GPR7): cell-based high throughput dose response assay to identify antagonists of the melanin-concentrating hormone receptor 1 (MCHR1).; assay type: functional
[13] = biological target: Neuropeptides B/W receptor type 1 (Homo sapiens, UniProt P48145); test: Fluorescence-based dose response cell-based high throughput screening assay to identify antagonists of the G-protein coupled receptor 7 (GPR7). [Related pubchem assays: 1952 (Screening assay (GPR7 antagonists).), 1880 (Summary AID.)]; assay type: functional
[14] = biological target: Voltage-gated N-type calcium channel alpha-1B subunit/Amyloid beta A4 precursor protein-binding family A member 1 (Homo sapiens, UniProt Q00975+Q02410); test: disruptors of Mint-PDZ/N-type channel peptide interaction – biochemical, HTRF, set 2, SAR follow-up (AID 434980); assay type: functional
[15] = biological target: Polyadenylate-binding protein 1 (Homo sapiens, UniProt P11940); test: blockers of PABP interaction with poly(A) – biochemical, fluorescence polarization, […] (AID 2014)
Genome polyprotein = Genome polyprotein (dengue virus type 2, UniProt P29990); test: flavivirus cap methylation enzyme inhibition – biochemical, confirmation dose response, primary screen (AID 588689); assay type: functional
[16] = fluconazole-exposed Candida albicans growth modulators – fluorescence, retest, confirmation (AID 2467); assay type: functional, cell-based
[17] = biological target: Eukaryotic translation initiation factor 4H (Homo sapiens, UniProt Q15056); test: eIF4H binding inhibition – biochemical, uHTS, fluorescence polarization, translation initiation inhibitor project, primary screen (AID 2012)
[18] = NIH-3T3 fibroblast cytotoxicity, dose response, cytotoxicity control, cell-based, fluorescence, Alamar Blue, secondary assay (AID 2327); assay type: functional;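 further: NIH-3T3 mouse fibroblasts cultured with fluconazole at 8 µg/mL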
Protein Tat = Protein Tat (Human immunodeficiency virus type 1 group M subtype B (isolate HXB2)(HIV-1), UniProt P04608); assay type: functional;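 further: tat binding to TAR RNA read out by fluorescence polarization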
[19] = biological target: Mitochondrial peptide methionine sulfoxide reductase (Bos taurus, UniProt P54149); assay type: functional;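 further: absorbance read-out, biochemical high-throughput dose-response screen for MsrA inhibitors, confirmatory; recombinant bovine MsrA coupled to E. coli TrxB with NADPH and selenocystamine; potency is for inhibitors of MsrA activity on DMSO substrate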
[20] = biological target: T7, Eukaryotic translation initiation factor 2-alpha kinase 3 (Homo sapiens, UniProt Q9NZJ5); test: Dose response cell-based high-throughput screening assay to measure PERK inhibition. [Related pubchem assays: 1416 ]; assay type: functional
[21] = biological target: T7, Eukaryotic translation initiation factor 2-alpha kinase 3; test: Counterscreen assay for PERK inhibitors: Dose response cell-based high throughput screening assay to measure inhibition of PERK at 6 hours. [Related pubchem assays: 1522, 1416 ]; assay type: functional

T7 sequence (Q9NZJ5 whole entry): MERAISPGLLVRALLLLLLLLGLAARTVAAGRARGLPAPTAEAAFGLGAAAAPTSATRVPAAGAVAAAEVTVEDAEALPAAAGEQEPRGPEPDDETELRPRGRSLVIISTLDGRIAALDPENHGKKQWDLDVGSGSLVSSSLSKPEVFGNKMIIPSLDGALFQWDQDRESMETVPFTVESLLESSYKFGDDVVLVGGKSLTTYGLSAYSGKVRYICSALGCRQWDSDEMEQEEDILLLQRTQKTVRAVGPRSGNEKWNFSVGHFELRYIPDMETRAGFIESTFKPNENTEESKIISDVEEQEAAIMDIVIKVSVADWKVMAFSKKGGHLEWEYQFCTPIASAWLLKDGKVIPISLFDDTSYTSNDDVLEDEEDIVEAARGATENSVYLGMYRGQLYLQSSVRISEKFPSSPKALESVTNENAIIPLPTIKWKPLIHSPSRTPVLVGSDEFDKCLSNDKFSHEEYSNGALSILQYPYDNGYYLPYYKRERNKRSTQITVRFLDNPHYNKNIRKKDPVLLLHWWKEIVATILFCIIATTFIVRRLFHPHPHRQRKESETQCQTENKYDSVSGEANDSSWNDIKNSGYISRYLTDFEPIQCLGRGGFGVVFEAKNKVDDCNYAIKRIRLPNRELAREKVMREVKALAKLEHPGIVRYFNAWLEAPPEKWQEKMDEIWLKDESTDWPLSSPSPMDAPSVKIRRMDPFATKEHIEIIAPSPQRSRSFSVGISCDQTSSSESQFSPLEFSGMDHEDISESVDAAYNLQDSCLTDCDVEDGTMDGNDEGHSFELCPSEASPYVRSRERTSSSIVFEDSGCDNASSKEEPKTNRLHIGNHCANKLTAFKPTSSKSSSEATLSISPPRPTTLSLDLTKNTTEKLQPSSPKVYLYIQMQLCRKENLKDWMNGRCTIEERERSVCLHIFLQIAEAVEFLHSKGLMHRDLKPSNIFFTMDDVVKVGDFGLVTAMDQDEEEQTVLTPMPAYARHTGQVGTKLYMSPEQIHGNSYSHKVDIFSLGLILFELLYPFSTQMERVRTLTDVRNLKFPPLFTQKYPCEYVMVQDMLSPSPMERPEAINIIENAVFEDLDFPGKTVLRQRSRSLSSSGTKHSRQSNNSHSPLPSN
Chain of Voltage-gated N-type calcium channel alpha-1B subunit/Amyloid beta A4 precursor protein-binding family A member 1 (Q00975 whole entry): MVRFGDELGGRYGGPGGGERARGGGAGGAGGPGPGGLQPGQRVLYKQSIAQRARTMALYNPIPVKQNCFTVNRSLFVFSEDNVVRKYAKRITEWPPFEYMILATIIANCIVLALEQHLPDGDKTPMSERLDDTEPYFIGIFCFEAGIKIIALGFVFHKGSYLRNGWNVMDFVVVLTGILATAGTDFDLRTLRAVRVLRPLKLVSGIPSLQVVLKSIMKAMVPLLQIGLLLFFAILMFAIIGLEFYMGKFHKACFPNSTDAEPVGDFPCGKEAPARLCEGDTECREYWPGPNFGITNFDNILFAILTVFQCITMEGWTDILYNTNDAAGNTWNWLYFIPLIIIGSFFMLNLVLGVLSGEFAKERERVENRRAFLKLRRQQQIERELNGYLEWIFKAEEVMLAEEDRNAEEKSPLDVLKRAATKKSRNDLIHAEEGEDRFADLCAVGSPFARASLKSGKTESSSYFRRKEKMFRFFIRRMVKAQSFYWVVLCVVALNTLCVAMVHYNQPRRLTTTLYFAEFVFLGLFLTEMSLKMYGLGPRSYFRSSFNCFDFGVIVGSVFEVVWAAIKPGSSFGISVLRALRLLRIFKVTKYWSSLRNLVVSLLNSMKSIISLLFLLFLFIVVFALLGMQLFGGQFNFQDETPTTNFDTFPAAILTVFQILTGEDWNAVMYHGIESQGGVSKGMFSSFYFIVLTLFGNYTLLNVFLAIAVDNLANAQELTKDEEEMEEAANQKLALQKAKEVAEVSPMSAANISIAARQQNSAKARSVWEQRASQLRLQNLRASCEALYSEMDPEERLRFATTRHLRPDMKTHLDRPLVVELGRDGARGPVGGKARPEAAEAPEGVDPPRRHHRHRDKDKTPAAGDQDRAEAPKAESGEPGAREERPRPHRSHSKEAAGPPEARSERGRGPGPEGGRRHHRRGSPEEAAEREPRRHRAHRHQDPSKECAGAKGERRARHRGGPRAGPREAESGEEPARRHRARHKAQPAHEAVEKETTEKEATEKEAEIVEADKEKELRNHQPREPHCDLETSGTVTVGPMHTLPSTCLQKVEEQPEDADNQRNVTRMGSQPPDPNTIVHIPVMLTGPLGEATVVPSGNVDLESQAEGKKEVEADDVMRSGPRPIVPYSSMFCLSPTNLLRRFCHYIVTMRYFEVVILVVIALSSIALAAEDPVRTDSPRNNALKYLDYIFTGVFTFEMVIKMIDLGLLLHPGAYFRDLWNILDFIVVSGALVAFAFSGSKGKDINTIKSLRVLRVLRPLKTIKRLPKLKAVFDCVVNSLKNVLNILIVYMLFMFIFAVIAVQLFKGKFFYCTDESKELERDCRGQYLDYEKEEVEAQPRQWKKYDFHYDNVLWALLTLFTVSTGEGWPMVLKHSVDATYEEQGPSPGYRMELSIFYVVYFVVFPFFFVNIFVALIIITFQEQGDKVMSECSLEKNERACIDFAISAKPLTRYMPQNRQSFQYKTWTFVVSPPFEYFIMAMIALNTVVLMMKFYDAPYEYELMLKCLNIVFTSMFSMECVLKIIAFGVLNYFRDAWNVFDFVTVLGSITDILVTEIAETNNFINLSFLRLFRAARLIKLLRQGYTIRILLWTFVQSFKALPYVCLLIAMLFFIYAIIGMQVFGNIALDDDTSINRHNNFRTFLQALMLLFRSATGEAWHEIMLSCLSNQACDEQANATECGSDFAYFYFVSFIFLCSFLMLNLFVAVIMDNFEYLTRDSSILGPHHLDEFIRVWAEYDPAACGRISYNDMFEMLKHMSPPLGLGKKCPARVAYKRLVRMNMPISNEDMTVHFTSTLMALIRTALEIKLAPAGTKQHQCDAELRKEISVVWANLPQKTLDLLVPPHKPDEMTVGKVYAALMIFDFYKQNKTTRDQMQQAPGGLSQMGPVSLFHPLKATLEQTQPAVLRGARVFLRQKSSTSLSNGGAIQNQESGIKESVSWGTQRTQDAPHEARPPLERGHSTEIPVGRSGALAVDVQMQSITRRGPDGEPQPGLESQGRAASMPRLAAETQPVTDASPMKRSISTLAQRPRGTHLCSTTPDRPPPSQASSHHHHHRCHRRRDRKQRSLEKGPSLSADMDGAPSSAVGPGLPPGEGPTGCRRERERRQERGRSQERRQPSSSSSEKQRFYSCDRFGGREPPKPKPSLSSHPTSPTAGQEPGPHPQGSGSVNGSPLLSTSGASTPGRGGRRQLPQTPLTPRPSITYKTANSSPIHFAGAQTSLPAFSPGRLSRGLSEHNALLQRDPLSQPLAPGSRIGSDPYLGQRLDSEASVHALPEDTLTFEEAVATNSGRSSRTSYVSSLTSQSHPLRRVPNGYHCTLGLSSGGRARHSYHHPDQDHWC
Chain of Voltage-gated N-type calcium channel alpha-1B subunit/Amyloid beta A4 precursor protein-binding family A member 1 (Q02410 whole entry): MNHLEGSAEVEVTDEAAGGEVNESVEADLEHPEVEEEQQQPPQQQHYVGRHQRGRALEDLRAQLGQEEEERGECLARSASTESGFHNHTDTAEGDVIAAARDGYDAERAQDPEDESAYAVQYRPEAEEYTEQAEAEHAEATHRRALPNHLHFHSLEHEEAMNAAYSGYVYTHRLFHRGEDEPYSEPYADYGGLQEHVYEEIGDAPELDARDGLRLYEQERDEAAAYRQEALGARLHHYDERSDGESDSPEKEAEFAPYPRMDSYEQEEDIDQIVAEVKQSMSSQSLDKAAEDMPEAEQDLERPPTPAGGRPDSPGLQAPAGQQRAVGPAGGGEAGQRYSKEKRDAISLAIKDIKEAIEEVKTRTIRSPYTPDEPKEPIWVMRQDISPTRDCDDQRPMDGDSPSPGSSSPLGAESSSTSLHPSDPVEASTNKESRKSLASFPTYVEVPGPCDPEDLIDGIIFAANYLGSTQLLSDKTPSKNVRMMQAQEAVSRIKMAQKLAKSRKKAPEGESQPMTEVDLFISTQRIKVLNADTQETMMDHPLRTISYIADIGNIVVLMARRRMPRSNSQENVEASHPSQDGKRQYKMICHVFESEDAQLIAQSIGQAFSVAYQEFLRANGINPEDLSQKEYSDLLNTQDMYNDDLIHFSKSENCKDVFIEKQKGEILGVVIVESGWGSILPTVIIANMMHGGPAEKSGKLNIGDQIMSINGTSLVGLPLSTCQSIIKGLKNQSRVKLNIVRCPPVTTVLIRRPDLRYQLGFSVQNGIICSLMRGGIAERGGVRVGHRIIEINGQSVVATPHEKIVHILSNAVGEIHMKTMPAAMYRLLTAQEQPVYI
Chain of Polyadenylate-binding protein 1 (P11940 whole entry): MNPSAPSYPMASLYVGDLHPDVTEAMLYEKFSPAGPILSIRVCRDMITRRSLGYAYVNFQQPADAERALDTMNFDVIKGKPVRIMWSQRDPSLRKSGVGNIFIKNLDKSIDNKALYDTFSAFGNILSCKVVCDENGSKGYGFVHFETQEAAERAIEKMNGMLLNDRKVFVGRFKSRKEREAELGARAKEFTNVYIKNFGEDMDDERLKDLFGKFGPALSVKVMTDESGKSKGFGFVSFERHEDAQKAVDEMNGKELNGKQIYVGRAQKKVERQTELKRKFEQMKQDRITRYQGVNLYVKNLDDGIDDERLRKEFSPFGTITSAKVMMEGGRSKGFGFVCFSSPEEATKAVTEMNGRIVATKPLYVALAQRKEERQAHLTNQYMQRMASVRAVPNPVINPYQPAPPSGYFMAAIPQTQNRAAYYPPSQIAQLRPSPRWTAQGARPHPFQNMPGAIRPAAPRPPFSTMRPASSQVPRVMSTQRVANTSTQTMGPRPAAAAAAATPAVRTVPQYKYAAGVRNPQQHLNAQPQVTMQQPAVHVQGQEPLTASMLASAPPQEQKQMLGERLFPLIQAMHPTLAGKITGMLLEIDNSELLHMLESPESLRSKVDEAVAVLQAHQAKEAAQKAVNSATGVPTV
Chain of Phospholipase A2 (P04054 whole entry): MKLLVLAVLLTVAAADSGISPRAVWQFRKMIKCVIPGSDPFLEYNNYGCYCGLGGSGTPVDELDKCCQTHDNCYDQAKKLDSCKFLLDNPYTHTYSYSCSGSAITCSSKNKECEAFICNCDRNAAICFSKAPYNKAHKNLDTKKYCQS

## NCCC[C@@H](CC(=O)N[C@@H]1CCCC[C@H]1C(=O)N[C@H](CC(=O)N[C@@H](CCC(=O)O)CC(=O)O)Cc1c[nH]c2ccccc12)NC(=O)C[C@H](CO)NC(=O)[C@@H]1CNCC[C@H]1N
Cytochrome P450 2C9
  AC50: 12.6 µM (inconclusive)
Cytochrome P450 2D6
  AC50: 39.8 µM (inconclusive)

## CC(C)c1ccc2[nH]c(O)c(N=NC(=O)c3cccc(S(=O)(=O)Nc4cccc(Cl)c4)c3)c2c1
[1]
  EC50: > 35.4 µM (not active)
[2]
  EC50: > 35.4 µM (not active)
HEK293
  IC50: > 35.4 µM (not active)

## Cc1ccc(CN2C3CCCC2CC(NC(=S)NCc2ccccc2)C3)cc1 (centres undefined)
[3]
  IC50: > 100 µM (inactive)
[4]
  IC50: 5.23 µM (active)
[5]
  IC50: 91.3 µM (active)
[6]
  EC50: 64.9 µM (not active)
[7]
  EC50: 2.66 µM (active)
Cysteine protease ATG4B
  IC50: 15.6 µM (active)
Phospholipase A2
  IC50: 7.96 µM (active)

## O=C(c1ccc(Cl)cc1)n1c2ccccc2c2ccccc21
Streptococcus
  EC50: > 500 µM (not active)

## O=C(O)C1Nc2cc(C(F)(F)F)ccc2S(=O)(=O)N1 (centres undefined)
[8]
  IC50: > 100 µM (not active)
[9]
  IC50: > 100 µM (inactive)
[10]
  IC50: > 100 µM (not active)
[11]
  IC50: > 100 µM (inactive)

## Nc1c(C(=O)NCc2ccc3c(c2)OCO3)nnn1Cc1ccc(Br)cc1
[12]
  IC50: > 43.8 µM (not active)
[13]
  IC50: > 43.8 µM (not active)

## O=C(NCCCO)c1cc(-c2ccco2)nc2ccccc12
[14]
  IC50: > 56.8 µM (inactive)

## Oc1ccc(/C=N/NP(=S)(c2ccccc2)c2ccccc2)c(O)c1O
[15]
  IC50: > 100 µM (inactive)
Genome polyprotein
  IC50: > 100 µM (active)
[16]
  EC50: > 38 µM (not active)
[17]
  IC50: 65.3 µM (active)
[18]
  EC50: > 150 µM (inactive)
Protein Tat
  IC50: 25.3 µM (inconclusive)

## NC(=S)N/N=C/c1ccc(/C=N/NC(N)=S)cc1
[19]
  IC50: 155 µM (inactive)
[20]
  EC50: > 55.7 µM (not active)
[21]
  EC50: > 55.7 µM (not active)
